Experimental data published in US6737383B1, “Herbicidal oxadiazolidines” (priority 1999, dated 2004).

Key:
surinam grass = assay: Test B pre/postemergence surinam grass; format: in vivo, Brachiaria decumbens; conditions: Preemergence
How it was run: (§1)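 Herbicidal effect was estimated by eye on a ten-point control scale after plants spent twelve to sixteen days in a greenhouse following soil or foliar treatment. Foliar sprays targeted plants at one to four leaves; all doses were formulated in a non-phytotoxic solvent with surfactant.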

crabgrass = assay: Test B pre/postemergence crabgrass; format: in vivo, Digitaria sanguinalis; conditions: Preemergence
How it was run: as §1

rape = assay: Test B pre/postemergence rape; format: in vivo, Brassica napus; conditions: Preemergence
How it was run: as §1

wheat = assay: Test B pre/postemergence wheat; format: in vivo, Triticum aestivum; conditions: Preemergence
How it was run: as §1

bedstraw = assay: Test B pre/postemergence bedstraw; format: in vivo, Galium aparine; conditions: Preemergence
How it was run: as §1

blackgrass = assay: Test B pre/postemergence blackgrass; format: in vivo, Alopecurus myosuroides; conditions: Preemergence
How it was run: as §1

giant foxtail = assay: Test B pre/postemergence giant foxtail; format: in vivo, Setaria faberii; conditions: Preemergence
How it was run: as §1

purple nutsedge = assay: Test B pre/postemergence purple nutsedge; format: in vivo, Cyperus rotundus; conditions: Preemergence, scale of 0 to 10 where 0 is no effect and 10 is complete control
How it was run: as §1

morningglory = assay: Test B pre/postemergence morningglory; format: in vivo, Ipomoea hederacea; conditions: Preemergence
How it was run: as §1

wild oat = assay: Test B pre/postemergence wild oat; format: in vivo, Avena fatua; conditions: Preemergence
How it was run: as §1

pigweed = assay: Test B pre/postemergence pigweed; format: in vivo, Amaranthus retroflexus; conditions: Preemergence
How it was run: as §1

soybean = assay: Test B pre/postemergence soybean; format: in vivo, Glycine max; conditions: Preemergence
How it was run: as §1

cocklebur = assay: Test B pre/postemergence cocklebur; format: in vivo, Xanthium strumarium; conditions: Preemergence
How it was run: as §1

sugar beet = assay: Test B pre/postemergence sugar beet; format: in vivo, Beta vulgaris; conditions: Preemergence
How it was run: as §1

velvetleaf = assay: Test B pre/postemergence velvetleaf; format: in vivo, Abutilon theophrasti; conditions: Preemergence
How it was run: as §1

corn = assay: Test B pre/postemergence corn; format: in vivo, Zea mays; conditions: Preemergence
How it was run: as §1

[1] = Rate 62 g/ha, scale of 0 to 10 where 0 is no effect and 10 is complete control
[2] = Rate 125 g/ha, scale of 0 to 10 where 0 is no effect and 10 is complete control
[3] = Rate 250 g/ha, scale 0 (no effect) to 10 (complete control)
[4] = Rate 500 g/ha, scale 0 to 10 (0 no effect, 10 complete control)

CC(C)N(C(=O)n1oc(=O)n(C(C)C(=S)N(C)C)c1=O)c1ccc(F)cc1 (stereo not shown) [Compound 728]
B. signalgrass plant response rating (surinam grass; [1]): 5 | Plant response rating, B. signalgrass (surinam grass; [2]): 8 | B. signalgrass plant response rating (surinam grass; [3]): 8 | B. signalgrass plant response rating (surinam grass; [4]): 9 | Crabgrass plant response rating (crabgrass; [1]): 6 | Plant response rating, Crabgrass (crabgrass; [2]): 6 | Crabgrass plant response rating (crabgrass; [4]): 7 | Rape plant response rating (rape; [1]): 0 | Plant response rating, Rape (rape; [2]): 3 | Rape plant response rating (rape; [3]): 6 | Rape plant response rating (rape; [4]): 8 | Wheat plant response rating (wheat; [1]): 0 | Plant response rating, Wheat (wheat; [2]): 0 | Wheat plant response rating (wheat; [3]): 5 | Wheat plant response rating (wheat; [4]): 7 | Bedstraw plant response rating (bedstraw; [1]): 0 | Plant response rating, Bedstraw (bedstraw; [2]): 0 | Bedstraw plant response rating (bedstraw; [3]): 0 | Bedstraw plant response rating (bedstraw; [4]): 2 | Blackgrass plant response rating (blackgrass; [1]): 0 | Plant response rating, Blackgrass (blackgrass; [2]): 9 | Blackgrass plant response rating (blackgrass; [3]): 9 | Blackgrass plant response rating (blackgrass; [4]): 10 | Giant foxtail plant response rating (giant foxtail; [1]): 4 | Plant response rating, Giant foxtail (giant foxtail; [2]): 7 | Giant foxtail plant response rating (giant foxtail; [3]): 8 | Giant foxtail plant response rating (giant foxtail; [4]): 8 | Nutsedge plant response rating (purple nutsedge; Rate 62 g/ha): 0 | Plant response rating, Nutsedge (purple nutsedge; Rate 125 g/ha): 0 | Morningglory plant response rating (morningglory; [1]): 0 | Plant response rating, Morningglory (morningglory; [2]): 0 | Morningglory plant response rating (morningglory; [3]): 2 | Morningglory plant response rating (morningglory; [4]): 2 | Wild oats plant response rating (wild oat; [1]): 0 | Plant response rating, Wild oats (wild oat; [2]): 4 | Wild oats plant response rating (wild oat; [3]): 10 | Wild oats plant response rating (wild oat; [4]): 10 | Redroot pigweed plant response rating (pigweed; [1]): 0 | Plant response rating, Redroot pigweed (pigweed; [2]): 7 | Redroot pigweed plant response rating (pigweed; [3]): 8 | Redroot pigweed plant response rating (pigweed; [4]): 9 | Soybean plant response rating (soybean; [1]): 0 | Plant response rating, Soybean (soybean; [2]): 0 | Soybean plant response rating (soybean; [3]): 0 | Soybean plant response rating (soybean; [4]): 0 | Cocklebur plant response rating (cocklebur; [1]): 0 | Plant response rating, Cocklebur (cocklebur; [2]): 0 | Cocklebur plant response rating (cocklebur; [3]): 0 | Cocklebur plant response rating (cocklebur; [4]): 0 | Sugarbeets plant response rating (sugar beet; [1]): 0 | Plant response rating, Sugarbeets (sugar beet; [2]): 0 | Sugarbeets plant response rating (sugar beet; [3]): 4 | Sugarbeets plant response rating (sugar beet; [4]): 4 | Velvetleaf plant response rating (velvetleaf; [1]): 0 | Plant response rating, Velvetleaf (velvetleaf; [2]): 0 | Velvetleaf plant response rating (velvetleaf; [3]): 0 | Velvetleaf plant response rating (velvetleaf; [4]): 0 | Corn plant response rating (corn; [1]): 0 | Plant response rating, Corn (corn; [2]): 0 | Corn plant response rating (corn; [3]): 0 | Corn plant response rating (corn; [4]): 0
